# According to US5959109A, “Compounds and methods for increasing endogenous levels of corticotropin-releasing factor” (Neurocrine Biosciences, Inc., priority 1996, dated 1999):
# Ends that are not written are not given here.
# How the values were obtained:
# human CRF-BP = settings: cited from earlier work
# [1] = cited from earlier work
# human recombinant CRF-BP = molecular target: T1, human recombinant CRF-BP (Homo sapiens, UniProt P24387); experiment: LIRMA: displacement of 125I-h/rCRF from CRF-BP, Ki; type: binding; settings: inhibitory binding affinity constant (Ki)
# T1 construct: made in house
# T1 sequence (P24387 25-322): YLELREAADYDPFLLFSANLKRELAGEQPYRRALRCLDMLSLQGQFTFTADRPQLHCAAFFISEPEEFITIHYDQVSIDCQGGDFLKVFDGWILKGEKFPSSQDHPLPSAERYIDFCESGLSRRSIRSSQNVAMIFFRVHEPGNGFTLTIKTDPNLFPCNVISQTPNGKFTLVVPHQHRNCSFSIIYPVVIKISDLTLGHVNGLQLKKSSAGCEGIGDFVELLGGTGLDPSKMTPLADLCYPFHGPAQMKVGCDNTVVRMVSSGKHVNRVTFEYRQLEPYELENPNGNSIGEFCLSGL
# Description: In LIRMA CRF-BP isolated from brain tissue, serum, or cells expressing a recombinant form, is added to wells of a 96-well plate, to small polypropylene microfuge tubes, or to glass borosilicate tubes in a binding buffer (0.02% NP-40 in 50 mM phosphate-buffered saline). ^125 I-h/rCRF (New England Nuclear) and the candidate ligand inhibitor at 10 μM are added and the reaction is incubated for 1 hour at room temperature. An appropriately diluted anti-CRF-BP antibody, such as a rabbit anti-hCRF-BP (Potter et al., Proc. Natl. Acad. Sci. USA 89:4192-4196, 1992) is added to each tube, and after further incubation, bound complexes are precipitated by the further addition of a goat anti-rabbit antibody. The precipitate containing ^125 I-CRF is collected by centrifugation and the amount of radioactivity in the pellet is determined by a gamma counter. If the candidate ligand inhibitor displaces CRF from CRF-BP, the pellets will contain less radioactivity in comparison to controls in which no candidate peptide is added. Maximum inhibition (i.e., 100%) of the binding of ^125 I-h/rCRF to the CRF-BP is defined by the amount of radioactivity left in the pellets after incubation with 10 μM of the CRF-BP peptide ligand h/rCRF (6-33). Thus, the binding potency of the candidate ligand inhibitor will be measured relative to the potency of the standard h/rCRF (6-33).
# Thus, a ligand having a Ki of less than that of hCRF will bind more strongly to hCRF-BP than will hCRF itself, and a ligand having a higher value will have a relatively lower binding affinity.
# The assay is performed in 600 μl polypropylene microfuge tubes or a 96-well plate. First, 50 μl of a 250 ng/ml of purified recombinant CRF-BP is added to 150 μl of PBS binding buffer (50 mM sodium phosphate, 0.15M NaCl, and 0.02% NP-40). Next, ^125 I-h/r CRF at a final concentration of 200 pM and 50 μl of a 10-100 μM concentration of the ligand inhibitor are added and incubated for 1 hour at room temperature. To the reaction, 50 μl of anti-CRF-BP antibody, 5144, diluted 1:1000 with assay buffer is added to each tube and allowed to bind for a further 1 hour at room temperature. The total volume in all tubes is adjusted to 300 μl with assay buffer. Bound complexes are precipitated by the addition of 200 μl of preprecipitated goat anti-rabbit (GAR) second antibody at 1:20 in 1% normal rabbit serum, 4% PEG, 50 mM sodium phosphate, 0.1% sodium azide, followed by incubation for 1 hour at room temperature. The antibody-bound ^125 I-CRF precipitate is then collected by centrifugation (3000×g) at 4° C. for 20 minutes in a Beckman GS-15R centrifuge. Using a Beckman Biomer 1000 robotic workstation, the tubes are aspirated and washed once with 600 μl of PBS plus 0.02% NP-40. Tubes containing the pellets are then transferred to 12×74 mm counting tubes and counted in a gamma counter.
# Inhibitory binding affinity constant (Ki) values are determined using the method of Munson et al., Anal. Biochem. 107:220, 1980.
# [2] = Automated passive avoidance learning; type: in vivo, rat; settings: oral, 5 minutes after training period; FIGS. 5A, 5B
# Description: FIGS. 5A and 5B are graphs depicting the effect of administration of representative ligand inhibitors of this invention, Compound Nos. 97-1 and 153, respectively. The ligand inhibitors were administered 5 minutes post-training period in the passive avoidance test.
# The apparatus for both rats and mice is the same as used in active avoidance testing (see Example 14).
# For the training trial, the animal is placed individually in one compartment of the learning apparatus, which is separated from a second compartment by a guillotine door. Following a three minute habituation period, the door is opened and the latency to enter the second compartment is recorded. When the animal enters with all four paws, the door is closed, and a 0.5 second AC footshock (Coulburn precision shocker) is delivered. After five seconds, the subject is removed and placed in its home cage. At the time of testing (usually 1-7 days later), the animal is returned to the compartment in which it was initially placed for the learning trial, the door is opened and the latency to enter the second compartment is recorded, but the animal is not shocked. […]
# For most strains of rats with weights between 150 and 350 grams, an effective footshock intensity ranges from 0.2-1.0 mA. […] The latency time of rats to enter the dark compartment is measured. […]
# CRF receptors = settings: rat, in vivo; cited from earlier work
# CRF/CRF-BP complexes [3] = experiment: Disruption of CRF/CRF-BP complexes in human brain tissue in vitro; type: binding
# Source text: Other peptide molecules, which are distinct from CRF, bind CRF-BP. For example, the human neuropeptide urocortin (Vaughan et al., Nature 378:287, 1995) has a high affinity for human CRF-BP. […] Thus, CRF-BP may be a modulator of a family of CRF-related peptides. […] Such disruption has the effect of increasing free CRF levels, thus making more CRF available for binding to its receptors. The ligand inhibitors of the present invention may also be used to elevate free levels of urocortin and other members of the CRF family in mammals. Assays for measuring the increase of urocortin (as well as other CRF-related peptides) are performed essentially as described herein for CRF, except that the appropriate detection molecules are employed (e.g., antibody to urocortin). Moreover, urocortin, sauvagine, urotensin, and the like and their analogues may be used to inhibit CRF/CRF-BP complexes and raise free CRF levels or inhibit urocortin/CRF-BP complexes and raise free urocortin levels.
# Morris water maze test = type: in vivo, rat; settings: 1 or 20 mg/kg oral, 15 minutes prior to testing; FIGS. 4A, 4B
# Description: As discussed in more detail below (see Example 6), 15 minutes prior to training on each of days 1-3, groups of animals orally receive control solution or a dosage of the ligand inhibitor. Control animals typically reach the platform within five to ten seconds after three days of training. The measure of the memory modulator effects of a ligand inhibitor is a shift of this time period. Administration of a ligand inhibitor results in a dose-dependent increase in availability of synaptic CRF and a behavioral dose-dependent increase in acquisition and memory retention.
# The Morris Water Maze Test is a simple spatial learning task that requires a minimal amount of stress and experience. […] The latency time to find a hidden platform is monitored. […]
# The apparatus used in this test is a pool (46.4 cm in diameter, 45.7 cm high) filled to a depth of 23 cm with opaque water (22° C.-25° C.). […] The animal is placed into a designated quadrant of the tank and the time to approach and ascend the hidden platform is measured; the location of subject placement and platform remain constant throughout the experiment. […]
# Rats were treated by oral administration with either vehicle or 1 or 20 mg/kg of either Compound No. 1 or Compound No. 153 15 minutes prior to testing. The latency time to reach the platform in the Morris water maze was recorded for each group.
# CRF/CRF-BP complexes [4] = experiment: ELISA of CRF/CRF-BP complex in NP-40 solubilized cerebrocortical brain tissue (FIG. 3); type: binding, human; settings: post-mortem controls and Alzheimer's disease patients
# Description: FIG. 3 is a graph displaying the results of ELISAs testing the ability of a representative ligand inhibitor, Compound No. 35, to displace endogenous CRF from CRF-BP in brain tissue from Alzheimer's disease patients and normal controls.
# Another ligand inhibitor, Compound No. 35, was tested for its ability to inhibit CRF/CRF-BP complexes in NP-40 solubilized human cerebrocortical brain tissue obtained postmortem from controls and Alzheimer disease patients. Briefly, 0.1-0.5 g of brain tissue was homogenized in phosphate-buffered saline containing 0.2% NP-40. The homogenate was clarified by centrifugation at 3000×g for 10 minutes. Supernatants were assayed by ELISA for the formation of CRF/CRF-BP complex in the presence or absence of Compound No. 35.
# [5] = cited from earlier work; remark: listed apart in the source
# Elevated plus-maze test = type: in vivo, rat; settings: ICV
# Source text: The Elevated plus-maze test predicts how animals respond to an approach-avoidance situation involving an exposed, lighted space versus a dark, enclosed area. In the maze, both spaces are elevated off the ground and constitute two runways intersecting in the form of a plus sign. This type of approach-avoidance situation is a classical test of "emotionality" and is very sensitive to treatments that produce disinhibition (such as sedative or hypnotic drugs) and stress. No motivational constraints are necessary and the animal is free to remain in the dark or venture out onto the open arms.
# The elevated plus-maze apparatus has four arms (50 cm long, 10 cm wide) situated at right angles to each other and elevated from the floor (50 cm). Two of the arms are enclosed with walls (40 cm high) and two arms have no walls (open arms). Subjects are placed individually into the center of the maze and allowed free access to all four arms for a 5 minute testing period. The time spent in each arm is recorded automatically by photocell beams and a computer interface.
# Groups of 7-10 rats receive ICV injections of the ligand inhibitor. For purposes of comparison, rats also receive 0 or 0.1-25 μg of h/rCRF (1-41).
compound,measurement,setting,value
"urocortin: the human neuropeptide urocortin (DNPSLSIDLTFHLLRTLLELARTQSQRERAEQNRIIFDSV; ends and bridges not checked; UniProt P55089 83-122, looked up)",affinity for CRF-BP,human CRF-BP,high affinity
same,feeding behavior,[1]; animals,significantly suppress feeding behavior in animals
same,blood pressure,[1]; in vivo,lowering blood pressure
O=c1c(C=Nc2nc3ccccc3[nH]2)c(O)n(CCCc2ccccc2)c(=S)n1CCCc1ccccc1 [Compound 97-1],Ki,human recombinant CRF-BP,< 50 nM
same,latency time to entering the dark compartment,[2],increase in medium latency time
CN1[C@@H]2CC[C@H]1C[C@@H](OC(=O)C(CO)c1ccccc1)C2 (stereo partly shown) [atropine],CRF receptors after treatment,CRF receptors,increase in CRF receptors
"rat urocortin: rat urocortin (DDPPLSIDLTFHLLRTLLELARTQSQRERAEQNRIIFDSV; ends and bridges not checked; UniProt P55090 81-120, looked up)",disruption of CRF/CRF-BP complexes,CRF/CRF-BP complexes [3],can disrupt the CRF/CRF-BP complexes
COc1ccc(Cn2c(O)c(C=Nc3ncc(C)s3)c(=O)n(Cc3ccc(OC)cc3OC)c2=S)c(OC)c1 [Compound 153],latency time to reach the platform / performance,Morris water maze test,improved performance at each time interval
same,latency time to entering the dark compartment,[2],increase in medium latency time
O=c1oc2ccc(Cl)cc2c(O)c1C=Nc1nc2ccccc2s1 [Compound 35],inhibition of formation of CRF/CRF-BP complexes in brain tissue,CRF/CRF-BP complexes [4],inhibits formation of CRF/CRF-BP complexes in brains of controls and Alzheimer's disease patients
"human CRF: peptide that regulates the release of adrenocorticotropin (ACTH), β-endorphin, and other POMC-derived peptides from the pituitary",carbachol-induced behaviors,CRF receptors,inhibits carbachol-induced behaviors
same,affinity for CRF-BP,human CRF-BP,high affinity
same,nocturnal food intake,"[5]; rat, in vivo",significant decrease on nocturnal food intake
same,temperature response in brown adipose tissue,"[5]; rat, in vivo",increased temperature response in brown adipose tissue
same,body weight,[5]; rats,lowered body weight in rats
same,time on the open arms / performance,Elevated plus-maze test,"significantly more time on the open arms, indicating increased anxiety"
